Data taken from patent publication US20150352108A1, “AMINO-PYRIMIDINE COMPOUNDS AS INHIBITORS OF TBK1 AND/OR IKK EPSILON” (Alzheimer's Institute of America, priority 2009, published 2015).

How the values were obtained:
IKKε = target: T1, IKKε (Homo sapiens, UniProt Q14164); test: In-vitro IKKε kinase assay ([γ33]ATP filter-plate); format: biochemical; settings: text bins; read-out: IC50 for inhibition of the kinase activity of IKKε
T1 construct: His-tag; made in house; host or cells: Sf9 insect cells
T1 sequence (Q14164 1-716): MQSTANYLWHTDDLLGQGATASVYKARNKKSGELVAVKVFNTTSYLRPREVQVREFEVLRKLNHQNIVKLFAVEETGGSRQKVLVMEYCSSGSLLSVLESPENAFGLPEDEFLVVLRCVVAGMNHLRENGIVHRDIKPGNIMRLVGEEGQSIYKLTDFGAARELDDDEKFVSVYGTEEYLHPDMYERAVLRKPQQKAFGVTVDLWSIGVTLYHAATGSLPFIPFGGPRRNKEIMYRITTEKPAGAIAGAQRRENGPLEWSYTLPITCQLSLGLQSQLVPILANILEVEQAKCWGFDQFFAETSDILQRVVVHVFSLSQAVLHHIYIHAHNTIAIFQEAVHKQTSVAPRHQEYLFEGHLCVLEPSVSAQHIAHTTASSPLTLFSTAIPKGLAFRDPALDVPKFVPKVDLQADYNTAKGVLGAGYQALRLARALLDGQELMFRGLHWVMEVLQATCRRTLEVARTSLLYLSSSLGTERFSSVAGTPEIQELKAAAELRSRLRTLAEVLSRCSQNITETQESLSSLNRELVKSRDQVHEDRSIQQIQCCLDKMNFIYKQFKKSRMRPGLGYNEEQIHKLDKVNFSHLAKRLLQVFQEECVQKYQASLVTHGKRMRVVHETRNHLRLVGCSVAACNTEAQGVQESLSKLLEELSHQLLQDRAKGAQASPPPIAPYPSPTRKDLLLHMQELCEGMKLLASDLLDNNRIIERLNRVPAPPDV
Method in brief: (§1)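 His-tagged IKKε and TBK1 from Sf9 cells were assayed with myelin basic protein or casein and [γ33]ATP at 2×Km ATP (32 μM for IKKε, 60 μM for TBK1). Enzyme was 0.1 or 0.015 μg/ml for IKKε and 0.1 or 0.02 μg/ml for TBK1 (normal/sensitized). Reactions ran 30-45 min, were filter-captured, scintillation-counted, and normalized to DMSO after background subtraction.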

TBK1 = target: T2, TBK1 (Homo sapiens, UniProt Q9UHD2); test: In-vitro TBK1 kinase assay ([γ33]ATP filter-plate); format: biochemical; settings: text bins; read-out: IC50 for inhibition of the kinase activity of TBK1
T2 construct: His-tag; made in house; host or cells: Sf9 insect cells
T2 sequence (Q9UHD2 1-729): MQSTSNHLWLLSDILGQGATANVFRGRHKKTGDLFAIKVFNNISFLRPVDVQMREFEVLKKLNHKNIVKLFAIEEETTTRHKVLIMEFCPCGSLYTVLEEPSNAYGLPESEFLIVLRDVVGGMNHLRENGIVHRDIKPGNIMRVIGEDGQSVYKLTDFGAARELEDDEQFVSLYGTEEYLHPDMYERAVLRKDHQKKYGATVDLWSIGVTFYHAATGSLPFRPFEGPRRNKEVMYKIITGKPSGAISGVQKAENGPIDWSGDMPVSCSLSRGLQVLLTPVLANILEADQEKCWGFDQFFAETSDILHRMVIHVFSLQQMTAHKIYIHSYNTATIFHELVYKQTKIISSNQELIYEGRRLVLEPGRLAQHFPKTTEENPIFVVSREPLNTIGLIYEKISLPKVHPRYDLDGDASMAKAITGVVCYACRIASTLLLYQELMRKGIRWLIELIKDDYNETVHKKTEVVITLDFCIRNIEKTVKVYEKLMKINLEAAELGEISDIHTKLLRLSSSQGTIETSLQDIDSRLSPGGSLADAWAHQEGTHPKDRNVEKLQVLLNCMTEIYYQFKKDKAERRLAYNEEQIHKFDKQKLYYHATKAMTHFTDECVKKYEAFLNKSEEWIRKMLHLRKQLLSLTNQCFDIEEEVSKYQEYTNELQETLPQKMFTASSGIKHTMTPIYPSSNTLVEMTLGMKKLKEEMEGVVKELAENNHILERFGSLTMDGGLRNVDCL
Method in brief: as §1

IC50 (IKKε): < 5 nM
IC50 (TBK1): < 10 nM
SMILES: N#Cc1cc(-c2ccnc(Nc3ccc(N4CCOCC4)cc3)n2)ccc1OC1CCOCC1 [Example 5, 5-(2-{[4-(Morpholin-4-yl)phenyl]amino}pyrimidin-4-yl)-2-(tetrahydro-2H-pyran-4-yloxy)benzaonitrile]
